Reference: US20260256756A1, “USE OF PIPERIDINE ALKENE COMPOUND IN PREPARATION OF DRUG FOR TREATING CANCER” (JIANGSU HANSOH PHARMACEUTICAL GROUP CO., LTD., priority 2023, published 2026)

Tested on: human pancreatic cancer cell line Capan-1 xenograft tumor
Assay: Subcutaneous xenograft tumor model of human pancreatic cancer cell line Capan-1
Assay type: in vivo, BALB/c nude mice
Settings: Capan-1, 100 mg/kg oral once/day
Text: • 1. Experimental objective: To evaluate the in vivo efficacy of compound 1 in a subcutaneous xenograft tumor model of human pancreatic cancer cell line Capan-1 in nude mice. • 2. Reagent • IMDM medium (30-2005, ATCC) and fetal bovine serum (FBS) (35-081-CV, Corning) • DPBS (21-031-CVR, Corning) and Matrigel (354234, Corning) • HPMC (H02J10D78204, Shanghai Yuanye Bio-Technology Co., Ltd.) • Trypsin-EDTA (25200-072, Gibco), penicillin and streptomycin (MA0110, Dalian Meilun Biotechnology Co., Ltd.) • 3. Experimental operations and data processing • 3.1 Animals: • BALB/c nude mice, 6-8 weeks old, female, purchased from Jiangsu GemPharmatech Co., Ltd. • 3.2 Cell culture and cell suspension preparation • a. A vial of Capan-1 cells was taken from a cell bank, the cells were thawed with IMDM medium (IMDM+20% FBS), and the thawed cells were placed in a cell culture flask (with the cell type, date, the name of the culture operator, etc., being marked on the wall of the flask), which were placed in a CO2 incubator for culturing (wherein the temperature of the incubator was 37° C., and the CO2 concentration was 5%). • b. The cells were passaged once a week, and after passage, the cells were placed in the CO2 incubator to continue the culture. This process was repeated until the cell number met the requirements for in vivo efficacy. • c. The cultured cells were collected, counted using a full-automatic cell counter, and resuspended with PBS on the basis of the counting results to prepare a cell suspension (at a density of 5×10^7/mL). An equal volume of Matrigel was added to the cell suspension, and the resulting mixture was mixed uniformly and then placed in an ice box for later use. • 3.3 Cell inoculation • a. Before inoculation, the nude mice were marked with disposable universal ear tags for mice and rats. • b. At the time of inoculation, the cell suspension was mixed uniformly, 0.2-1 mL of the cell suspension was aspirated using a 1 mL syringe with air bubbles expelled, and the syringe was then placed on an ice bag for later use. • c. […] Tumor was measured on days 4-7 after inoculation depending on the tumor growth, and the tumor size was calculated.
tumor volume (mm^3)=length (mm)×width (mm)×width (mm)/2 Tumor volume calculation: • b. […] The tumor inhibitory efficacy of the compound was evaluated by TGI (%) and ΔT/ΔC (%). ΔT/ΔC (%)=(T−T0)/(C−C0)×100, where T and C are the tumor volumes of the treatment group and the vehicle control group at the end of the experiment, respectively, and T0 and C0 are the tumor volumes of the treatment group and the vehicle control group at the beginning of the experiment, respectively. […]

SMILES: O=C(c1cc(Cc2n[nH]c(=O)c3ccccc23)ccc1F)N1CCN(C(=O)C2CC2)CC1 [Olaparib]
- Tumor volume (Mean ± SEM) (Day 0): 164 ± 13 mm^3
- T/C (Day 28): 86.27%
- TGI (Day 28): 14.39%
- Tumor volume (Mean ± SEM) (Day 28): 724 ± 82 mm^3
